Legend:
Experiment in all cases: relative viability (nuclei count vs DMSO), 5 days (fraction); higher = more cells survive
[1] = compound: O=c1[nH]cc(F)c(=O)[nH]1 [5-Fluorouracil] + Cc1nc(NC(=O)N2CCC[C@H]2C(N)=O)sc1-c1ccnc(C(C)(C)C(F)(F)F)c1 [Alpelisib] (partner 2 µM)
In short: (§1)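 After 5 days of treatment, lung cancer cells in 1536-well plates were fixed and stained in a single step (final 0.05% Triton X-100, 1% formaldehyde, 1 ug/ml Hoechst) and their nuclei counted on 4× images. Treatment had been applied by pin tool the day after seeding as one drug alone or as a fixed anchor-drug dose with five library-drug doses (not always all listed) in √10 steps. Relative viability is the nuclei count of treated wells divided by that of vehicle wells, and values are medians of duplicate plates.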

[2] = compound: O=c1[nH]cc(F)c(=O)[nH]1 [5-Fluorouracil] + CC(=O)c1c(C)c2cnc(Nc3ccc(N4CCNCC4)cn3)nc2n(C2CCCC2)c1=O [Palbociclib] (partner 0.5 µM)
In short: as §1

[3] = compound: CN[C@@H]1C[C@H]2O[C@@](C)([C@@H]1OC)n1c3ccccc3c3c4c(c5c6ccccc6n2c5c31)C(=O)NC4 [Staurosporine] + Cc1cc(Nc2cc(N3CCN(C)CC3)nc(Sc3ccc(NC(=O)C4CC4)cc3)n2)n[nH]1 [Tozasertib] (partner 0.1 µM)
In short: as §1

[4] = compound: O=c1[nH]cc(F)c(=O)[nH]1 [5-Fluorouracil] + Nc1ncn([C@H]2C[C@H](O)[C@@H](CO)O2)c(=O)n1 [Decitabine] (partner 2 µM)
In short: as §1

Cell Line	relative viability ([1]; first compound 0.02 µM)	relative viability ([1]; first compound 0.2 µM)	relative viability ([1]; first compound 0.6325 µM)	relative viability ([1]; first compound 2 µM)	relative viability ([2]; first compound 0.02 µM)	relative viability ([2]; first compound 0.2 µM)	relative viability ([2]; first compound 0.6325 µM)	relative viability ([2]; first compound 2 µM)	relative viability ([3]; first compound 0.005 µM)	relative viability ([3]; first compound 0.01581 µM)	relative viability ([3]; first compound 0.05 µM)	relative viability ([3]; first compound 0.1581 µM)	relative viability ([3]; first compound 0.5 µM)	relative viability ([4]; first compound 0.02 µM)	relative viability ([4]; first compound 0.2 µM)	relative viability ([4]; first compound 0.6325 µM)	relative viability ([4]; first compound 2 µM)
NCI-H2228	0.582	0.655	0.59	0.409	0.79	0.733	0.509	0.356	0.251	0.201	0.109	0.115	0.124	–	–	–	–
NCI-H1944	0.804	0.763	0.351	0.211	0.306	0.319	0.252	0.214	0.255	0.21	0.206	0.161	0.155	0.472	0.399	0.268	0.183
NCI-H1648	–	–	–	–	0.297	0.267	0.281	0.241	0.236	0.185	0.169	0.214	0.243	0.541	0.528	0.47	0.371
NCI-H1792	0.691	0.606	0.168	0.116	0.688	0.696	0.352	0.29	–	–	–	–	–	0.514	0.473	0.27	0.202
NCI-H1563	0.772	0.931	0.821	0.841	–	–	–	–	–	–	–	–	–	–	–	–	–
NCI-H596	0.357	0.449	0.497	0.381	–	–	–	–	1.02	0.735	0.572	0.36	0.288	1.15	0.999	0.902	0.706
NCI-H2342	–	–	–	–	0.497	0.543	0.536	0.518	0.406	0.495	0.295	0.305	0.278	0.726	0.682	0.698	0.739
NCI-H522	–	–	–	–	1	1.05	0.96	0.992	0.541	–	0.492	0.433	0.486	0.642	0.58	0.622	0.722
CAL-12T	1.47	1.22	1.02	0.425	0.515	0.419	0.359	0.251	0.146	0.117	0.101	0.132	0.0975	–	–	–	–
EBC-1	0.865	0.841	0.792	0.612	–	–	–	–	–	–	–	–	–	–	–	–	–
NCI-H1650	–	–	–	–	0.275	0.379	0.31	0.236	0.332	0.302	0.17	0.203	0.123	0.573	0.473	0.348	0.271
IA-LM	0.682	0.37	0.175	0.182	–	–	–	–	–	–	–	–	–	–	–	–	–
